Laboratory results published in patent publication US9920030B2 (priority 2006, dated 2018).
Where two headings read alike, the source gives them in different places.

Experiments:
Assay type in all cases: in vivo
[1] = test system: Phytophthora infestans (the causal agent of tomato late blight); assay: whole plant or invertebrate
[2] = test system: Phytophthora infestans (the causal agent of tomato late blight); assay: whole plant or invertebrate; remark: listed apart in the source
[3] = test system: Plasmopara vilicola (the causal agent of grape downy mildew); assay: Test A: grape downy mildew, test suspension sprayed on grape seedlings after inoculation, visual disease rating
Source text: General protocol for preparing test suspensions for Test A-C: The test compounds were first dissolved in acetone in an amount equal to 3% of the final volume and then suspended at the desired concentration (in ppm) in acetone and purified water (50/50 mix by volume) containing 250 ppm of the surfactant Trem® 014 (polyhydric alcohol esters). The resulting test suspensions were then used in Tests A-C. Spraying a 200 ppm test suspension to the point of run-off on the test plants was equivalent to a rate of 500 g/ha.
Grape seedlings were inoculated with a spore suspension of Plasmopara vilicola (the causal agent of grape downy mildew) and incubated in a saturated atmosphere at 20° C. for 24 h. After a short drying period, the test suspension was sprayed to the point of run-off on the grape seedlings, which were then moved to a growth chamber at 20° C. for 5 days, after which time the grape seedling were placed back into a saturated atmosphere at 20° C. for 24 h. Upon removal, visual disease ratings were made.
Results for Tests A-C are given in Table A. In the table, a rating of 100 indicates 100% disease control and a rating of 0 indicates no disease control (relative to the controls). A dash (-) indicates no test results.

[4] = compounds without asterisk (application rate not given), 100 = 100% disease control, 0 = no control relative to the controls
[5] = Phytophthora infestans, 96 h, read-out: Percent Disease Control, Test C
[6] = Phytophthora infestans, 144 h, read-out: Percent Disease Control, Test B
[7] = Plasmopara, 144 h, * tested at 40 ppm, read-out: Percent Disease Control, Test A

SMILES	Percent Disease Control, Test C [1, 4]	Percent Disease Control, Test B [2, 4]	Percent Disease Control, Test A [3, 4]	other results
Cc1cc(C(F)(F)F)nn1CC(=O)N1CCC(c2nc(C3=NOC4(CCC(c5ccccc5)C4)C3)cs2)CC1 (single isomer, unassigned) [Compound 158]	99%	100%	96%	
Cc1cc(C(F)(F)F)nn1CC(=O)N1CCC(c2nc(C3=NOC4(COC(c5ccccc5)OC4)C3)cs2)CC1 (single isomer, unassigned) [Compound 175]	33%	100%	68%	
Cc1cc(C(F)(F)F)nn1CC(=O)N1CCC(c2nc(C3=NOC4(COC(c5ccccc5)OC4)C3)cs2)CC1 (single isomer, unassigned) [Compound 176]	63%	100%	68%	
Cc1cc(C(F)(F)F)nn1CC(=O)N1CCC(c2nc(C3=NOC4(CCC(C)(c5ccccc5)CC4)C3)cs2)CC1 (single isomer, unassigned) [Compound 186]				Percent Disease Control, Test C ([1]; * tested at 40 ppm): 86%; Percent Disease Control, Test B ([2]; * tested at 40 ppm): 100%; Percent Disease Control, Test A ([3]; * tested at 40 ppm): 95%
Cc1cc(C(F)(F)F)nn1CC(=O)N1CCC(c2nc(C3=NOC4(CCC(C)(c5ccccc5)CC4)C3)cs2)CC1 (single isomer, unassigned) [Compound 187]				Percent Disease Control, Test C ([1]; * tested at 40 ppm): 93%; Percent Disease Control, Test B ([2]; * tested at 40 ppm): 100%; Percent Disease Control, Test A ([3]; * tested at 40 ppm): 99%
Cc1cc(C(F)(F)F)nn1CC(=O)N1CCC(c2nc(C3=NOC4(CCCC(C#N)C4)C3)cs2)CC1 (single isomer, unassigned) [Compound 253]				Percent Disease Control, Test C ([1]; * tested at 40 ppm): 95%; Percent Disease Control, Test B ([2]; * tested at 40 ppm): 100%; Percent Disease Control, Test A ([3]; * tested at 40 ppm): 100%
Cc1cc(C(F)(F)F)nn1CC(=O)N1CCC(c2nc(C3=NOC4(CCCC(C#N)C4)C3)cs2)CC1 (single isomer, unassigned) [Compound 254]				Percent Disease Control, Test C ([1]; * tested at 40 ppm): 93%; Percent Disease Control, Test B ([2]; * tested at 40 ppm): 100%; Percent Disease Control, Test A ([3]; * tested at 40 ppm): 100%
Cc1cc(C(F)(F)F)nn1CC(=O)N1CCC(c2nc(C3=NOC4(CCC(C#N)CC4)C3)cs2)CC1 (single isomer, unassigned) [Compound 255]				Percent Disease Control, Test C ([1]; * tested at 40 ppm): 93%; Percent Disease Control, Test B ([2]; * tested at 40 ppm): 100%; Percent Disease Control, Test A ([3]; * tested at 40 ppm): 95%
Cc1cc(C(F)(F)F)nn1CC(=O)N1CCC(c2nc(C3=NOC4(CCC(C#N)CC4)C3)cs2)CC1 (single isomer, unassigned) [Compound 256]				Percent Disease Control, Test C ([1]; * tested at 40 ppm): 99%; Percent Disease Control, Test B ([2]; * tested at 40 ppm): 100%; Percent Disease Control, Test A ([3]; * tested at 40 ppm): 100%
Cc1cc(C(F)(F)F)nn1CC(=O)N1CCC(c2nc(C3=NO[C@@H](c4ccccc4)C3)cs2)CC1 [Compound 3, 1-[4-[4-[(5R)-4,5-dihydro-5-phenyl-3-isoxazolyl]-2-thiazolyl]-1-piperidinyl]-2-[5-methyl-3-(trifluoromethyl)-1H-pyrazol-1-yl]ethanone]				pest or weed control at 10 µg/mL [1, 5]: 99%; pest or weed control at 10 µg/mL [2, 6]: 100%; pest or weed control at 10 µg/mL ([3]; Plasmopara, 144 h, ** tested at l0 ppm, read-out: Percent Disease Control, Test A): 100%
Cc1cc(C(F)(F)F)nn1CC(=O)N1CCC(c2nc(C3CC(c4ccccc4)=NO3)cs2)CC1 (stereo not drawn) [Compound 6, 4-[4-(4,5-dihydro-3-phenyl-5-isoxazolyl)-2-thiazolyl]-1-[(5-methyl-3-(trifluoromethyl)-1H-pyrazol-1-yl)acetyl]piperidine]				pest or weed control at 40 ppm [1, 5]: 99%; pest or weed control at 40 ppm [2, 6]: 100%; pest or weed control at 40 ppm [3, 7]: 95%
CC(=O)N1C(c2ccccc2)COC1c1csc(C2CCN(C(=O)Cn3nc(C(F)(F)F)cc3C)CC2)n1 (stereo not drawn) [Compound 14]	99%	99%	25%	
Cc1cc(C(F)(F)F)nn1CC(=O)N1CCC(c2nc(C3=NOC(c4ccccc4)C3C)cs2)CC1 (stereo not drawn) [Compound 25]				Percent Disease Control, Test C ([1]; * tested at 40 ppm): 99%; Percent Disease Control, Test B ([2]; * tested at 40 ppm): 100%; Percent Disease Control, Test A ([3]; * tested at 40 ppm): 100%
Cc1cc(C(F)(F)F)nn1CC(=O)N1CCC(c2nc(-c3ccc(-c4ccccc4)cc3)cs2)CC1 [Compound 26]	33%	83%	76%	
Cc1cc(C(F)(F)F)nn1CC(=O)N1CCC(c2nc(C3=NOC(C)(c4ccccc4)CC3)cs2)CC1 (stereo not drawn) [Compound 29]	99%	100%	99%	
Cc1cc(C(F)(F)F)nn1CC(=O)N1CCC(c2nc(-c3cc(-c4ccccc4)no3)cs2)CC1 [Compound 30]				Percent Disease Control, Test C ([1]; ** tested at l0 ppm): 50%; Percent Disease Control, Test B ([2]; ** tested at l0 ppm): 57%; Percent Disease Control, Test A ([3]; ** tested at l0 ppm): 31%
Cc1cc(C(F)(F)F)nn1CC(=O)N1CCC(c2nc(C3=NC(c4ccccc4)CO3)cs2)CC1 (stereo not drawn) [Compound 31]				Percent Disease Control, Test C ([1]; ** tested at l0 ppm): 60%; Percent Disease Control, Test B ([2]; ** tested at l0 ppm): 83%; Percent Disease Control, Test A ([3]; ** tested at l0 ppm): 84%

SMILES	Percent Disease Control, Test C [1, 4]	Percent Disease Control, Test B [2, 4]	Percent Disease Control, Test A [3, 4]	other results
Cc1cc(C(F)(F)F)nn1CC(=O)N1CCC(c2nc(C3=NCCN3Cc3ccccc3)cs2)CC1 [Compound 32]	0%	26%	0%	
Cc1cc(C(F)(F)F)nn1CC(=O)N1CCC(n2cc(-c3cccc(-c4ccccc4)c3)cn2)CC1 [Compound 33]	0%	9%	15%	
Cc1cc(C(F)(F)F)nn1CC(=O)N1CCC(n2cc(-c3cccc(-c4ccccc4)n3)cn2)CC1 [Compound 34]	0%	40%	0%	
Cc1cc(C(F)(F)F)nn1CC(=O)N1CCC(c2nc(C3=NOC4(CCCc5ccccc54)C3)cs2)CC1 (stereo not drawn) [Compound 37, 1-[4-[4-(3′,4′-dihydrospiro[isoxazole-5(4H), 1′,(2′H)-naphthalen]-3-yl)-2-thiazolyl]-1-piperidinyl]-2-[5-methyl-3-(trifluoromethyl)-1H-pyrazol-1-yl]ethanone]				Percent Disease Control, Test C ([1]; * tested at 40 ppm): 99%; Percent Disease Control, Test B ([2]; * tested at 40 ppm): 100%; Percent Disease Control, Test A ([3]; * tested at 40 ppm): 100%
Cc1cc(C(F)(F)F)nn1CC(=O)N1CCC(c2nc(C3=NOC(c4cc(Cl)cc(Cl)c4)(C(F)(F)F)C3)cs2)CC1 (stereo not drawn) [Compound 39]	0%	67%	8%	
Cc1cc(C(F)(F)F)nn1CC(=O)N1CCC(c2nc(-c3nnc(-c4ccccc4)o3)cs2)CC1 [Compound 40]	99%	100%	47%	
Cc1cc(C(F)(F)F)nn1CC(=O)N1CCC(c2nc(-c3ncc(-c4ccccc4)o3)cs2)CC1 [Compound 42]	96%	100%	62%	
Cc1cc(C(F)(F)F)nn1CC(=O)N1CCC(c2nc(-c3nc4ccccc4s3)cs2)CC1 [Compound 43]	0%	43%	0%	
Cc1cc(C(F)(F)F)nn1CC(=O)N1CCC(c2nc(C3=NOC4(CCc5ccccc54)C3)cs2)CC1 (stereo not drawn) [Compound 44, 1-[4-[4-(2,3-dihydrospiro[1H-indene-1,5′(4′H)-isoxazol]-3′-yl)-2-thiazolyl]-1-piperidinyl]-2-[5-methyl-3-(trifluoromethyl)-1H-pyrazol-1-yl]ethanone]				pest or weed control at 40 ppm [1, 5]: 99%; pest or weed control at 40 ppm [2, 6]: 100%; pest or weed control at 40 ppm [3, 7]: 100%
Cc1cc(C(F)(F)F)nn1CC(=O)N1CCC(c2nc(C3=NOC4C(=O)N(C)C(=O)C34)cs2)CC1 (stereo not drawn) [Compound 45]	0%	26%	30%	
Cc1cc(C(F)(F)F)nn1CC(=O)N1CCC(c2nc(C3=NCC(c4ccccc4)O3)cs2)CC1 (stereo not drawn) [Compound 47]	47%	85%	0%	
Cc1cc(C(F)(F)F)nn1CC(=O)N1CCC(c2nc(C3=NCCC(c4ccccc4)O3)cs2)CC1 (stereo not drawn) [Compound 48]	0%	85%	0%	
Cc1cc(C(F)(F)F)nn1CC(=O)N1CCC(c2nc(C3=NC(c4ccccc4)CO3)cs2)CC1 (stereo not drawn) [Compound 49]	96%	100%	0%	
Cc1cc(C(F)(F)F)nn1CC(=O)N1CCC(c2nc(C3=NCC(c4ccccc4)O3)cs2)CC1 (stereo not drawn) [Compound 50]	99%	100%	0%	
Cc1cc(C(F)(F)F)nn1CC(=O)N1CCC(c2nc(C3=NOC4c5ccccc5CC34)cs2)CC1 (stereo not drawn) [Compound 51]	99%	100%	99%	
Cc1cc(C(F)(F)F)nn1CC(=O)N1CCC(c2nc(-c3nc4ccccc4o3)cs2)CC1 [Compound 52]	67%	100%	85%	
